# Source: the supplement of paper PMC10307832
# What was measured:
# Assay in all cases: relative viability (nuclei count vs DMSO), 5 days (fraction); higher = more cells survive
# Tivantinib + Pictilisib = compound: O=C1NC(=O)[C@@H](c2cn3c4c(cccc24)CCC3)[C@@H]1c1c[nH]c2ccccc12 [Tivantinib] + CS(=O)(=O)N1CCN(Cc2cc3nc(-c4cccc5[nH]ncc45)nc(N4CCOCC4)c3s2)CC1 [Pictilisib] (partner 1 µM)
# Method in brief: (§1)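 A single step with final 0.05% Triton X-100, 1% formaldehyde and 1 ug/ml Hoechst fixed the cells and stained nuclei 5 days after treatment. Lung cancer cell lines in 1536-well plates had been treated by pin tool the day after seeding with one drug alone or a fixed anchor-drug dose plus five library-drug doses (not always all listed) in √10 steps, and nuclei were counted on 4× images. Relative viability is the ratio of nuclei in treated wells to nuclei in vehicle wells, taken as the median of duplicate plates.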
# Tivantinib + AZD7762 = compound: O=C1NC(=O)[C@@H](c2cn3c4c(cccc24)CCC3)[C@@H]1c1c[nH]c2ccccc12 [Tivantinib] + NC(=O)Nc1cc(-c2cccc(F)c2)sc1C(=O)N[C@H]1CCCNC1 [AZD7762] (partner 0.2 µM)
# Method in brief: as §1
# Crenolanib + Olaparib = compound: CC1(COc2ccc3c(c2)ncn3-c2ccc3cccc(N4CCC(N)CC4)c3n2)COC1 [Crenolanib] + O=C(c1cc(Cc2n[nH]c(=O)c3ccccc23)ccc1F)N1CCN(C(=O)C2CC2)CC1 [Olaparib] (partner 8 µM)
# Method in brief: as §1
# Crenolanib + Luminespib = compound: CC1(COc2ccc3c(c2)ncn3-c2ccc3cccc(N4CCC(N)CC4)c3n2)COC1 [Crenolanib] + CCNC(=O)c1noc(-c2cc(C(C)C)c(O)cc2O)c1-c1ccc(CN2CCOCC2)cc1 [Luminespib] (partner 0.01 µM)
# Method in brief: as §1
Cell Line,relative viability (Tivantinib + Pictilisib; first compound 0.01 µM),relative viability (Tivantinib + Pictilisib; first compound 0.03162 µM),relative viability (Tivantinib + Pictilisib; first compound 0.1 µM),relative viability (Tivantinib + Pictilisib; first compound 0.3162 µM),relative viability (Tivantinib + AZD7762; first compound 0.01 µM),relative viability (Tivantinib + AZD7762; first compound 0.03162 µM),relative viability (Tivantinib + AZD7762; first compound 0.1 µM),relative viability (Tivantinib + AZD7762; first compound 0.3162 µM),relative viability (Crenolanib + Olaparib; first compound 0.01 µM),relative viability (Crenolanib + Olaparib; first compound 0.03162 µM),relative viability (Crenolanib + Olaparib; first compound 0.1 µM),relative viability (Crenolanib + Olaparib; first compound 0.3162 µM),relative viability (Crenolanib + Olaparib; first compound 1 µM),relative viability (Crenolanib + Luminespib; first compound 0.01 µM),relative viability (Crenolanib + Luminespib; first compound 0.03162 µM),relative viability (Crenolanib + Luminespib; first compound 0.1 µM),relative viability (Crenolanib + Luminespib; first compound 0.3162 µM),relative viability (Crenolanib + Luminespib; first compound 1 µM)
EPLC-272H,0.346,0.3,0.357,0.278,0.278,0.284,0.21,0.268,0.854,0.868,0.605,1.11,0.989,0.371,0.574,0.366,0.168,0.319
NCI-H2126,0.51,0.446,0.496,0.478,1,1.03,0.94,1.04,0.928,0.91,0.893,0.994,0.952,0.922,0.958,0.869,0.857,0.588
LCLC-103H,0.684,0.517,0.704,0.63,0.808,0.702,0.684,0.793,0.751,0.759,0.68,0.698,0.712,1.02,0.922,0.878,1.06,0.863
NCI-H1975,0.283,0.304,0.281,0.259,0.734,0.667,0.714,–,0.768,0.699,0.73,0.726,0.731,0.337,0.22,0.182,0.269,0.185
NCI-H1793,0.353,0.42,0.437,–,0.355,0.645,0.412,0.378,0.993,0.947,0.889,1.13,0.762,0.197,0.249,0.165,0.16,0.186
NCI-H2085,0.477,0.471,0.392,0.515,1.01,0.944,0.942,0.813,–,0.752,0.714,0.782,0.784,0.478,0.43,0.407,0.481,0.421
PC-3 [JPC-3],0.687,0.705,0.765,0.637,0.781,0.823,0.884,0.601,1.26,–,1.01,1.06,1.06,0.806,0.761,0.676,0.742,0.71
NCI-H2087,0.958,0.757,0.909,0.896,1.28,1.47,1.12,1.32,0.602,0.643,0.547,0.671,0.623,0.184,0.195,0.167,0.191,0.184
NCI-H1755,0.462,0.417,0.39,0.355,0.457,0.476,0.47,0.424,0.919,0.801,0.845,0.898,0.848,0.416,0.656,0.667,0.43,0.397
EMC-BAC-2,0.562,0.511,0.567,0.527,1.14,1.09,1.08,1.22,0.559,–,0.466,0.532,0.462,1.31,1.17,1.17,1.45,1.18
NCI-H596,0.427,0.39,0.379,0.334,0.994,0.975,1.09,1.38,0.731,0.806,0.68,0.64,0.681,1.11,0.97,0.932,1.12,1.11
NCI-H650,0.835,–,0.817,0.8,1.17,0.818,1,1.21,0.4,0.379,0.343,0.339,0.325,0.839,0.791,0.777,0.872,0.757
NCI-H1915,0.902,0.92,0.93,1.04,0.654,0.771,0.629,0.665,0.267,0.278,0.266,0.283,0.244,0.787,0.875,0.757,0.857,0.803
ChaGo-K-1,0.851,0.608,0.757,0.646,0.781,0.871,0.862,0.861,0.398,0.406,0.426,0.422,0.45,0.595,0.612,0.655,0.655,0.68
NCI-H1355,0.401,0.356,0.426,0.38,0.756,0.819,0.794,0.637,0.812,0.817,0.739,0.784,0.651,0.741,0.777,0.65,0.721,0.665
NCI-H1651,0.622,0.448,0.545,0.614,0.452,0.404,0.437,0.353,0.177,0.186,0.198,0.171,0.166,0.867,0.926,0.711,0.875,0.748
LU99A,0.288,0.308,0.292,0.287,0.318,0.356,0.307,0.278,0.274,0.283,0.281,0.22,0.27,0.253,0.217,0.219,0.287,0.207
NCI-H3122,0.585,0.599,0.545,0.441,1.05,1.07,0.761,0.923,0.678,0.622,0.641,0.727,0.61,0.0862,0.0824,0.0708,0.0964,0.0864

Cell Line,relative viability (Tivantinib + Pictilisib; first compound 0.01 µM),relative viability (Tivantinib + Pictilisib; first compound 0.03162 µM),relative viability (Tivantinib + Pictilisib; first compound 0.1 µM),relative viability (Tivantinib + Pictilisib; first compound 0.3162 µM),relative viability (Tivantinib + AZD7762; first compound 0.01 µM),relative viability (Tivantinib + AZD7762; first compound 0.03162 µM),relative viability (Tivantinib + AZD7762; first compound 0.1 µM),relative viability (Tivantinib + AZD7762; first compound 0.3162 µM),relative viability (Crenolanib + Olaparib; first compound 0.01 µM),relative viability (Crenolanib + Olaparib; first compound 0.03162 µM),relative viability (Crenolanib + Olaparib; first compound 0.1 µM),relative viability (Crenolanib + Olaparib; first compound 0.3162 µM),relative viability (Crenolanib + Olaparib; first compound 1 µM),relative viability (Crenolanib + Luminespib; first compound 0.01 µM),relative viability (Crenolanib + Luminespib; first compound 0.03162 µM),relative viability (Crenolanib + Luminespib; first compound 0.1 µM),relative viability (Crenolanib + Luminespib; first compound 0.3162 µM),relative viability (Crenolanib + Luminespib; first compound 1 µM)
LOU-NH91,0.517,0.485,0.521,0.519,0.784,0.719,0.702,0.738,0.943,0.88,0.837,0.971,0.905,0.326,0.304,0.33,0.303,0.317
NCI-H647,0.45,0.341,0.409,0.371,0.509,0.314,0.445,0.585,0.477,0.512,0.511,0.802,0.586,0.202,0.206,0.44,0.233,0.107
NCI-H838,0.442,0.479,0.389,0.373,1,0.973,0.872,0.906,0.828,0.776,0.735,0.855,0.635,0.353,0.235,0.29,0.301,0.373
HARA,0.389,0.237,0.474,0.253,0.214,0.416,0.394,0.288,0.846,0.949,0.707,0.87,0.683,0.643,0.734,0.626,0.875,0.828
LXF-289,0.815,0.769,0.703,0.817,1.14,1.13,1.07,1.08,1.08,0.954,1,1.16,1.08,0.657,0.772,0.617,0.722,0.711
HOP-62,0.708,–,0.864,0.792,0.503,0.62,0.515,0.667,0.398,0.192,0.45,0.387,0.33,0.944,0.89,0.859,0.93,0.813
LK-2,0.685,–,0.567,0.496,0.447,0.214,0.288,0.363,0.837,0.572,0.655,1.06,0.585,0.169,0.18,0.16,0.17,0.199
HCC-44,0.69,0.523,0.886,0.728,1.04,1.05,1.08,0.985,0.983,0.941,0.976,0.98,0.991,1.26,0.98,1.05,0.771,0.784
BEN,0.703,0.41,0.501,0.432,0.705,0.535,0.617,0.581,1.15,0.96,0.966,1.01,1.05,0.644,0.257,0.425,0.528,0.32
NCI-H2347,0.986,0.724,0.514,0.525,0.848,0.727,0.669,0.534,0.555,0.457,0.536,0.59,0.636,0.44,–,–,0.556,0.353
NCI-H1395,0.581,0.595,0.571,0.61,0.406,0.405,0.395,0.371,0.495,0.453,0.543,0.439,0.45,0.686,0.803,0.698,0.763,0.58
201T,0.713,0.569,0.673,0.694,0.602,0.62,0.623,0.611,0.83,0.852,0.786,0.867,0.86,1.03,1.13,1.01,1.09,1.02
NCI-H2170,0.298,0.222,0.33,–,0.878,0.822,0.794,–,0.608,0.674,0.54,0.711,0.671,0.741,0.568,0.761,1.02,0.672
NCI-H727,0.36,0.368,0.447,–,0.535,0.421,0.551,–,0.678,0.652,0.646,0.627,0.847,0.353,0.376,0.264,0.428,0.376
ABC-1,0.802,0.51,0.681,0.731,0.8,0.912,0.708,0.685,1.01,0.78,0.614,0.668,0.625,–,0.655,0.666,0.47,0.611
LCLC-97TM1,0.199,0.14,0.234,0.181,0.268,0.311,0.197,0.25,0.395,0.53,0.383,0.42,0.412,0.777,0.749,0.792,0.844,0.753
NCI-H460,0.331,0.274,0.335,0.33,0.513,0.739,0.517,0.64,0.445,0.366,0.405,0.438,0.415,0.0489,0.039,0.0453,0.0313,0.0348
H3255,0.466,0.494,0.485,–,0.968,0.73,0.902,–,0.57,0.541,0.552,0.586,0.531,0.963,1.06,0.986,0.917,0.854
